One may read the IC50 as the midpoint of a concentration-inhibition curve.

Like-named read-outs stand apart in the source and are kept apart here.

Series [1] in a line: Pharmacokinetic study in Sprague-Dawley rats. The note with it: rat, oral.
For series [2], the system named is B16-F1 mouse melanoma cell line. The series can be described thus: Cytotoxicity (SRB) assay, B16-F1. The format is cell-based.
Series [3] concerns A375 human melanoma cell line. Nature of the series: Cytotoxicity (SRB) assay, A375. The format is cell-based.
In series [4] the test system is WM-164 human melanoma cell line. Nature of the series: Cytotoxicity (SRB) assay, WM-164. The format is cell-based.
Series [5] deals with DU 145 human prostate cancer cell line. Nature of the series: Cytotoxicity (SRB) assay, DU 145. It counts as cell-based. An excerpt:
(§1) Cells were stained with SRB solution.

In series [6] the test system is PC-3 human prostate cancer cell line. Nature of the series: cells.
Description: as §1

In series [7] the test system is LNCaP human prostate cancer cell line. The series can be described thus: Cytotoxicity (SRB) assay, LNCaP. It counts as cell-based.
Description: as §1

Series [8] deals with PPC-1 human prostate cancer cell line. The series can be described thus: Cytotoxicity (SRB) assay, PPC-1. The format is cell-based.
Description: as §1

For series [9], the system named is melanoma and prostate cancer cell lines. Nature of the series: Antiproliferative activity summarised over the cell line panel (range or average). It counts as cell-based.
The test system of series [10] is MDA-MB-435/LCCMDR1 multidrug-resistant melanoma cells. Nature of the series: Cytotoxicity (SRB) assay, MDA-MB-435/LCCMDR1. The format is cell-based.
A further series deals with PC-3 xenograft. Nature of the series: In vivo PC-3 prostate tumor xenograft. The settings on record: PC-3, 50 mg/kg i.p. daily; control 680 mm^3.
Setting [11] is: Mus musculus, B16-F1, Table 11, read-out: IC50, B16-F1.
Where [12] appears, read: Homo sapiens, A-375, Table 11, read-out: IC50, A375.
Setting [13] is: Homo sapiens, WM164, Table 11, read-out: IC50, WM164.
[14] abbreviates: Homo sapiens, DU-145, Table 11, read-out: IC50, Du 145.
[15] abbreviates: Homo sapiens, LNCaP, Table 11, read-out: IC50, LNCaP.
Where [16] appears, read: Homo sapiens, PPC-1, Table 11, read-out: IC50, PPC-1.
Setting [17] is: Tables 11-13, read-out: IC50 (average of all seven cell lines).
Setting [18] is: Mus musculus, B16-F1, Table 12, read-out: IC50 ± SEM, B16-F1 (converted).
The mark [19] stands for this setting: Homo sapiens, A-375, Table 12, read-out: IC50 ± SEM, A375 (converted).
[20] abbreviates: Homo sapiens, WM164, Table 12, read-out: IC50 ± SEM, WM164 (converted).
Where [21] appears, read: Homo sapiens, read-out: IC50 ± SEM, PC-3, Table 12.
Where [22] appears, read: read-out: IC50 (range over tested cell lines).

Regarding `COc1cc(C(=O)c2csc(Nc3ccc(F)cc3)n2)cc(OC)c1OC.Cl` [5Hc, (2-(p-fluorophenylamino)thiazol-4-yl)(3,4,5-trimethoxyphenyl)methanone hydrochloride salt], the “increased exposure (AUC) by the oral route compared to 1h” value in [1] is reported as “more than 4.3 fold”.
On to `O=S(=O)(c1ccccc1)n1ccnc1-c1ccccc1` [10a, 2-phenyl-1-(phenylsulfonyl)-1H-imidazole], for which the IC50 in series [2] (setting [11]) is above 10 µM; in series [3] (setting [12]), above 10 µM; in series [4] (setting [13]), above 10 µM; in series [5] (setting [14]) it was above 10 µM; in series [6] (read-out: IC50, PC-3, Table 11) it was above 10 µM; in series [7] (setting [15]), above 10 µM. Moreover, the IC50 in series [8] (setting [16]) and in series [9] (setting [17]) was above 10 µM each time.
For the compound `O=S(=O)(c1ccccc1)n1ccnc1-c1ccc(OCc2ccccc2)cc1` [10j, 2-(4-(benzyloxy)phenyl)-1-(phenylsulfonyl)-1H-imidazole], the IC50 is above 10 µM in [2] (setting [11]); above 10 µM in series [3] (setting [12]); above 10 µM in [4] (setting [13]); above 10 µM in series [5] (setting [14]); above 10 µM in [6] (read-out: IC50, PC-3, Table 11); above 10 µM in series [7] (setting [15]). Besides, the IC50 in series [8] (setting [16]) and in series [9] (setting [17]) was above 10 µM in each case.
On to `O=[N+]([O-])c1ccc(-c2nccn2S(=O)(=O)c2ccccc2)cc1` [10x, 2-(4-nitrophenyl)-1-(phenylsulfonyl)-1H-imidazole], for which the IC50 in series [2] (setting [11]) was above 10 µM; in [3] (setting [12]), above 10 µM; in [4] (setting [13]), above 10 µM; in series [5] (setting [14]) it was above 10 µM; in series [6] (read-out: IC50, PC-3, Table 11), above 10 µM; in series [7] (setting [15]) it was above 10 µM. Also, the IC50 in series [8] (setting [16]) and in [9] (setting [17]) was above 10 µM each time.
Regarding `O=C(c1ccc(F)cc1)c1cn(S(=O)(=O)c2ccccc2)c(-c2ccc(Cl)cc2)n1` [11fb, (2-(4-chlorophenyl)-1-(phenylsulfonyl)-1H-imidazol-4-yl)(4-fluorophenyl)methanone], the IC50 in series [10] (Homo sapiens, MDA-MB-435/LCCMDR1, read-out: IC50 MDR melanoma cell line) is 0.035 µM. The resistance index in series [10] (MDA-MB-435/LCCMDR1 vs MDA-MB-435) is recorded as 0.7.
For `COc1cc(C(=O)n2ccnc2-c2ccccc2)cc(OC)c1OC` [12aaa, (2-phenyl-1H-imidazol-1-yl)(3,4,5-trimethoxyphenyl)methanone], the IC50 is above 10 µM in series [2] (setting [11]); above 10 µM in [3] (setting [12]); above 10 µM in series [4] (setting [13]); above 10 µM in [5] (setting [14]); above 10 µM in [6] (read-out: IC50, PC-3, Table 11); above 10 µM in series [7] (setting [15]). Further, the IC50 in [8] (setting [16]) and in series [9] (setting [17]) was above 10 µM each time.
As to `COc1ccc(C(=O)n2ccnc2-c2ccccc2)cc1` [12aba, (4-methoxyphenyl)(2-phenyl-1H-imidazol-1-yl)methanone], the IC50 is above 10 µM in [2] (setting [11]); above 10 µM in series [3] (setting [12]); above 10 µM in [4] (setting [13]); above 10 µM in series [5] (setting [14]); above 10 µM in series [6] (read-out: IC50, PC-3, Table 11); above 10 µM in [7] (setting [15]). The IC50 in [8] (setting [16]) and in series [9] (setting [17]) was above 10 µM in each case.
With `COc1ccc(C(=O)c2c[nH]c(-c3ccccc3)n2)cc1OC` [12ae, (3,4-dimethoxyphenyl)(2-phenyl-1H-imidazol-4-yl)methanone], the IC50 in series [2] (setting [11]) was above 10 µM; in series [3] (setting [12]), above 10 µM; in series [4] (setting [13]) it was above 10 µM; in [5] (setting [14]), above 10 µM; in series [6] (read-out: IC50, PC-3, Table 11), above 10 µM; in series [7] (setting [15]), above 10 µM. For the same compound, the IC50 in series [8] (setting [16]) and in series [9] (setting [17]) was above 10 µM in each case.
As to `O=C(c1cccc(F)c1)c1c[nH]c(-c2ccccc2)n1` [12ag, (3-fluorophenyl)(2-phenyl-1H-imidazol-4-yl)methanone], the IC50 is above 10 µM in series [2] (setting [11]); above 10 µM in [3] (setting [12]); above 10 µM in series [4] (setting [13]); above 10 µM in series [5] (setting [14]); above 10 µM in series [6] (read-out: IC50, PC-3, Table 11); above 10 µM in series [7] (setting [15]). Besides, the IC50 in [8] (setting [16]) and in series [9] (setting [17]) was above 10 µM throughout.
On to `COc1ccc(-c2nc(C(=O)c3cc(OC)c(OC)c(OC)c3)c[nH]2)cc1` [12ca, (2-(4-methoxyphenyl)-1H-imidazol-4-yl)(3,4,5-trimethoxyphenyl)methanone], for which the IC50 is 0.108 µM in series [2] (setting [18]); 0.03 µM in [3] (setting [19]); 0.031 µM in series [4] (setting [20]); 0.045 µM in series [6] (setting [21]); 0.031 µM in [7] (Homo sapiens, LNCaP, Table 12, read-out: IC50 ± SEM, LNCaP (converted)); 0.0079 to 0.11 µM in series [9] (setting [22]).
Regarding `COc1cc(C(=O)c2c[nH]c(-c3cc(OC)c(OC)c(OC)c3)n2)cc(OC)c1OC` [12ea, (3,4,5-trimethoxyphenyl)(2-(3,4,5-trimethoxyphenyl)-1H-imidazol-4-yl)methanone], the IC50 was above 10 µM in series [2] (setting [18]); 4.8 µM in series [3] (setting [19]); above 10 µM in series [4] (setting [20]); above 10 µM in [9] (text on Tables 11-12, unit as printed, read-out: IC50 (average of all seven cell lines)).
As to `COc1cc(C(=O)c2c[nH]c(-c3ccc(Cl)cc3)n2)cc(OC)c1OC` [12fa, (2-(4-chlorophenyl)-1H-imidazol-4-yl)(3,4,5-trimethoxyphenyl)methanone], the IC50 in series [2] (setting [18]) is 0.168 µM; in series [3] (setting [19]), 0.043 µM; in series [4] (setting [20]) it was 0.026 µM; in series [6] (setting [21]), 0.035 µM; in series [9] (setting [22]), 0.0079 to 0.11 µM.
In the case of `COc1cc(C(=O)c2c[nH]c(-c3ccc(N(C)C)cc3)n2)cc(OC)c1OC` [12ga, (2-(4-(dimethylamino)phenyl)-1H-imidazol-4-yl)(3,4,5-trimethoxyphenyl)methanone], the IC50 is 0.361 µM in series [2] (setting [18]); 0.082 µM in [3] (setting [19]); 0.08 µM in series [4] (setting [20]); 0.092 µM in [6] (setting [21]); 0.0079 to 0.11 µM in [9] (setting [22]).
Take `COc1cc(C(=O)c2c[nH]c(-c3ccc(OCc4ccccc4)cc3)n2)cc(OC)c1OC` [12ja, (2-(4-(benzyloxy)phenyl)-1H-imidazol-4-yl)(3,4,5-trimethoxyphenyl)methanone]: the IC50 in series [2] (setting [18]) was 10 µM; in series [3] (setting [19]), 5.2 µM; in series [4] (setting [20]) it was 5.5 µM; in series [6] (setting [21]) it was 10 µM.
With `O=C(c1ccc(F)cc1)c1c[nH]c(-c2ccc(OCc3ccccc3)cc2)n1` [12jb, (2-(4-(benzyloxy)phenyl)-1H-imidazol-4-yl)(4-fluorophenyl)methanone], the IC50 in series [2] (setting [18]) was 0.117 ± 0.016 µM; in series [3] (setting [19]), 0.093 ± 0.008 µM; in series [4] (setting [20]), 0.09 ± 0.012 µM; in [6] (setting [21]), 0.079 ± 0.0004 µM. Besides, the “increase in activity compared with 12kb” value in series [9] (12jb vs para-hydroxy compound 12kb) stood at 440 fold.
`O=C(c1ccc(F)cc1)c1c[nH]c(-c2ccc(O)cc2)n1` [12kb]: the IC50 in series [2] (Table 12, read-out: IC50 ± SEM, B16-F1 (converted)) was above 10 µM; in series [3] (Table 12, read-out: IC50 ± SEM, A375 (converted)) it was 10 µM; in series [4] (Table 12, read-out: IC50 ± SEM, WM164 (converted)) it was above 10 µM; in series [5] (Table 12, read-out: IC50 ± SEM, Du 145), above 10 µM; in series [6] (read-out: IC50 ± SEM, PC-3, Table 12), above 10 µM; in series [7] (Table 12, read-out: IC50 ± SEM, LNCaP (converted)), 10 µM. Besides, the IC50 in series [8] (Table 12, read-out: IC50 ± SEM, PPC-1 (converted)) is above 10 µM.
`O=C(c1cc(O)c(O)c(O)c1)c1c[nH]c(-c2ccc(Cl)cc2)n1` [13fa, (2-(4-chlorophenyl)-1H-imidazol-4-yl)(3,4,5-trihydroxyphenyl)methanone]: the IC50 in series [2] (setting [18]) is 1.81 µM; in [3] (setting [19]) it was 3.9 µM; in [4] (setting [20]), 2.1 µM; in [6] (setting [21]) it was 10 µM.
Turning to `COc1cc(C(=O)c2csc(-c3ccccc3)n2)cc(OC)c1OCCN1C(=O)c2ccccc2C1=O` [compound 20], the IC50 in series [2] (Mus musculus, B16-F1, Table 6A, read-out: IC50 ± SEM, B16-F1 (converted)) was 3.1 µM; in series [3] (Homo sapiens, A-375, Table 6A, read-out: IC50 ± SEM, A375 (converted)), 2.3 µM; in [4] (Homo sapiens, WM164, Table 6A, read-out: IC50 ± SEM, WM164 (converted)), 1.3 µM; in series [5] (Homo sapiens, DU-145, Table 6A, read-out: IC50 ± SEM, DU 145), 0.642 µM; in series [6] (Homo sapiens, read-out: IC50 ± SEM, PC-3, Table 6A), above 10 µM; in series [7] (Homo sapiens, LNCaP, Table 6A, read-out: IC50 ± SEM, LNCaP (converted)) it was 1.45 µM. Further, the IC50 in series [8] (Homo sapiens, PPC-1, Table 6A, read-out: IC50 ± SEM, PPC-1 (converted)) is 0.633 µM.
On to `O=C(c1ccc2[nH]ccc2c1)c1csc(-c2cc3ccccc3[nH]2)n1` [compound 21, (2-(1H-indol-2-yl)thiazol-4-yl)(1H-indol-5-yl)methanone], for which, in the series on PC-3 xenograft, the “tumor volume at day 21” value was 331 mm^3.
